# Experimental data as given in PubChem BioAssay (NCI).
#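 Briefly, cells in 96-well plates were exposed to five compound concentrations for 48 h, and endpoints were estimated by linear interpolation. GI50 is the concentration that inhibits growth by half. TGI: concentration producing complete growth inhibition.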
# Key:
# Assay in all cases: NCI anticancer screen, dose series, 48 h
# [1] = test system: LOX IMVI melanoma
# [2] = test system: CCRF-CEM leukemia
# [3] = test system: UACC-257 melanoma
# [4] = test system: SW-620 colon
# [5] = test system: UO-31 renal
# [6] = test system: RPMI-8226 leukemia
# [7] = test system: NCI-H522 lung
# [8] = test system: T-47D breast
# [9] = test system: SK-MEL-28 melanoma
# [10] = test system: MDA-MB-435
# [11] = test system: RXF 393 renal
# [12] = test system: SK-MEL-5 melanoma
# [13] = test system: NCI-H460 lung
# [14] = test system: NCI/ADR-RES ovarian
# [15] = test system: A549 NSCLC
# [16] = test system: PC-3 prostate
# [17] = test system: TK-10 renal
# [18] = test system: COLO 205 colon
# [19] = test system: SF-268 CNS
# [20] = test system: MOLT-4 leukemia
# [21] = test system: SNB-19 CNS
# [22] = test system: HOP-92 NSCLC
# [23] = test system: HL-60(TB) leukemia
# [24] = test system: OVCAR-5 ovarian
# [25] = test system: NCI-H23 lung
# [26] = test system: IGROV1 ovarian
# [27] = test system: SK-OV-3 ovarian
# [28] = test system: HCC-2998 colon
# [29] = test system: 786-0 renal
# [30] = test system: DU-145 prostate
# [31] = test system: OVCAR-8 ovarian
# [32] = test system: HCT-116 colon
# [33] = test system: HS 578T breast
# [34] = test system: U251 CNS
# [35] = test system: ACHN renal
# [36] = test system: SF-539 CNS
# [37] = test system: M14 melanoma
# [38] = test system: CAKI-1 renal
# [39] = test system: UACC-62 melanoma
# [40] = test system: BT-549 breast
# [41] = test system: MDA-MB-231 breast
# [42] = test system: SNB-75 CNS
# [43] = test system: SK-MEL-2 melanoma
# [44] = test system: A498 renal
# [45] = test system: NCI-H226 lung
# [46] = test system: EKVX NSCLC
# [47] = test system: SF-295 CNS
# [48] = test system: MCF7 breast
# [49] = test system: MALME-3M melanoma
# [50] = test system: HCT-15 colon
# [51] = test system: K-562 leukemia
# [52] = test system: HOP-62 NSCLC
# [53] = test system: SN12C renal
# [54] = test system: SR leukemia
# [55] = test system: OVCAR-4 ovarian
# [56] = test system: HT29 colon
# [57] = test system: KM12 colon
compound,measurement,setting,value
Cc1cc2nc3c4cc(C#N)ccc4n(CCN(C)C)c3nc2cc1C,GI50,[1],0.601 µM
same,TGI,[1],2.8 µM
same,GI50,[2],1.22 µM
same,TGI,[2],> 33.8 µM
same,GI50,[3],0.686 µM
same,TGI,[3],2.06 µM
same,GI50,[4],0.411 µM
same,TGI,[4],1.97 µM
same,GI50,[5],0.312 µM
same,TGI,[5],2.24 µM
same,GI50,[6],1.1 µM
same,TGI,[6],4.61 µM
same,GI50,[7],0.505 µM
same,TGI,[7],1.96 µM
same,GI50,[8],2.3 µM
same,GI50,[9],2.27 µM
same,GI50,[10],1.01 µM
same,TGI,[10],3.39 µM
same,GI50,[11],0.918 µM
same,TGI,[11],2.83 µM
same,GI50,[12],1.69 µM
same,TGI,[12],3.51 µM
same,GI50,[13],0.416 µM
same,TGI,[13],2.51 µM
same,GI50,[14],0.637 µM
same,TGI,[14],7.08 µM
same,GI50,[15],0.666 µM
same,TGI,[15],3.02 µM
same,GI50,[16],1.49 µM
same,TGI,[16],> 21.1 µM
same,GI50,[17],1.98 µM
same,TGI,[17],> 23.2 µM
same,GI50,[18],0.456 µM
same,TGI,[18],1.63 µM
same,GI50,[19],1.62 µM
same,TGI,[19],> 20.7 µM
same,GI50,[20],0.429 µM
same,TGI,[20],> 32.6 µM
same,GI50,[21],0.978 µM
same,TGI,[21],> 25.2 µM
same,GI50,[22],0.634 µM
same,TGI,[22],4.58 µM
same,GI50,[23],1.16 µM
same,TGI,[23],4.37 µM
same,GI50,[24],1.45 µM
same,TGI,[24],> 22.6 µM
same,GI50,[25],0.507 µM
same,TGI,[25],2.37 µM
same,GI50,[26],1.07 µM
same,TGI,[26],5.6 µM
same,GI50,[27],0.919 µM
same,TGI,[27],9.98 µM
same,GI50,[28],1.03 µM
same,TGI,[28],2.44 µM
same,GI50,[29],1.34 µM
same,TGI,[29],> 20 µM
same,GI50,[30],1.1 µM
same,TGI,[30],> 32.7 µM
same,GI50,[31],0.584 µM
same,TGI,[31],3.92 µM
same,GI50,[32],0.429 µM
same,TGI,[32],1.76 µM
same,GI50,[33],1.59 µM
same,TGI,[33],> 21.5 µM
same,GI50,[34],0.86 µM
same,GI50,[35],0.324 µM
same,TGI,[35],1.48 µM
same,GI50,[36],0.966 µM
same,GI50,[37],1.36 µM
same,TGI,[37],3.82 µM
same,GI50,[38],0.381 µM
same,TGI,[38],3.42 µM
same,GI50,[39],1.4 µM
same,TGI,[39],5.21 µM
same,GI50,[40],2.4 µM
same,GI50,[41],1.06 µM
same,TGI,[41],> 20.6 µM
same,GI50,[42],0.951 µM
same,TGI,[42],2.67 µM
same,GI50,[43],2.18 µM
same,TGI,[43],6.15 µM
same,GI50,[44],1.93 µM
same,GI50,[45],1.23 µM
same,TGI,[45],8.43 µM
same,GI50,[46],1.71 µM
same,TGI,[46],> 23.8 µM
same,GI50,[47],0.932 µM
same,TGI,[47],> 22.5 µM
same,GI50,[48],1.2 µM
same,TGI,[48],6.72 µM
same,GI50,[49],1.38 µM
same,TGI,[49],3.6 µM
same,GI50,[50],1.01 µM
same,TGI,[50],6.17 µM
same,GI50,[51],0.682 µM
same,TGI,[51],> 34.1 µM
same,GI50,[52],0.755 µM
same,GI50,[53],0.77 µM
same,TGI,[53],> 20.8 µM
same,GI50,[54],0.362 µM
same,TGI,[54],3.59 µM
same,GI50,[55],1.65 µM
same,TGI,[55],5.73 µM
same,GI50,[56],0.546 µM
same,TGI,[56],6.8 µM
same,GI50,[57],1.69 µM
same,TGI,[57],> 29.7 µM
